Data reported in patent US12709760B2, “KIR 7.1 gene therapy vectors and methods of using the same” (WISCONSIN ALUMNI RESEARCH FOUNDATION, priority 2018, dated 2026).
“Also recorded” adds a separate entry of the source.

Tests used:
[1] = tested on: Kir7.1 Trp53Ter protein in CHO-K1 cells; assay: Immunoprecipitation / Western blot of GFP-fused Kir7.1 Trp53Ter protein after read-through; assay type: cell-based; details: Kir7.1-GFP fusion W53X, NB84-treated cells, anti-GFP
[2] = tested on: Kir7.1 channel in LCA16 iPSC-RPE cells; assay: Whole-cell patch clamp of LCA16 patient-derived iPSC-RPE cells; assay type: cell-based, human
Procedure: Electrophysiology. Standard whole cell patch clamp on single cells were performed as described^6 Briefly, the tight monolayer of hiPSC-RPE grown on a 6.5 mm transwell was dissociated into a single cell suspension as follows: the medium in which cells were maintained was completely removed and the cells were washed twice with 0NaCMF solution (135 mM NMDG-Cl, 5 mM KCl, 10 mM HEPES, 10 mM Glucose, 2 mM EDTA-KOH and adjusted to pH 7.4 with NMDG free base). The cells were then incubated with 0NaCMF containing papain (2.5 μl/ml), cysteine (0.3 mg/ml), glutathione (0.25 mg/ml) and taurine (0.05 mg/ml) for 45 mins at 37° C. The cells were rinsed with 0NaCMF solution to remove enzymes, resuspended in HEPES-Ringer's (HR) solution [NaCl (135 mM), KCl (5 mM), CaCl2) (1.8 mM), MgCl2 (1 mM), HEPES (10 mM), D-glucose (10 mM), pH 7.4±0.1 with NaOH, prepared in ddH2O], and kept on ice for up to 8 hrs until used for electrophysiological recording.
Single hiPSC-RPE cells with distinct apical processes were chosen for conventional patch clamping. Patch pipettes with a resistance of […] were fabricated from borosilicate capillaries using a pipet puller (P-1000®, Sutter instruments). The glass electrode was then fire polished using a microforge (MF-830®, Narshige). Data acquisition and the holding potential parameters were controlled using the Clampex® software (Axon instruments). Current recorded from the successful patch was amplified using Axopatch 200-B® (Axon Instruments) and filtered at 2 KHz. The signal was digitized using digidata 1400A® (Axon instruments) and analyzed using Clampfit® (Axon Instruments). During patch clamping, HR solution was continuously perfused as an external solution. The patch pipette was filled with solution containing 30 mM KCl, 83 mM K-gluconate, 5.5 mM EGTA-KOH, 0.05 mM CaCl2), 4 mM MgCl2, 10 mM HEPES, pH adjusted to 7.2 with KOH and filtered using the 0.2 μm filter.

[3] = LCA16 hiPSC-RPE subgroup, 100 or 500 μM NB84

For `C[C@@H](O)C1O[C@H](O[C@@H]2C(N)C[C@@H](NC(=O)[C@@H](O)CCN)[C@@H](O)C2O[C@@H]2O[C@H](CN)[C@H](O)C2O)[C@@H](N)C(O)[C@@H]1O` (some centres unmarked) [NB84], the “Full-length Kir7.1 protein product” value [1] was “a protein band equivalent to the full-length product was detected; also recorded: partial restoration of the full-length protein product”, the “Current amplitude rescue in a subpopulation of cells” value [2, 3] was “no rescue in current amplitude” and the “Membrane potential rescue in a subpopulation of cells” value [2, 3] was “rescue of membrane potential to control levels”. The “Enhancement of current by Rb+” value ([2]; LCA16 iPSC-RPE, 500 μM NB84) was 10 fold, the “Current amplitude upon introduction of Rb+” value ([2]; LCA16 iPSC-RPE, 500 μM NB84, high external Rb+, −150 mV, n=8) was −1562.7±546.7 pA and the “Kir7.1 current amplitude, normal external K+” value ([2]; LCA16 iPSC-RPE, 500 μM NB84, inward current at −150 mV, n=8) was −94.3±24 pA. For the same molecule, the Membrane potential ([2]; LCA16 iPSC-RPE, NB84-treated cells, n=10) was −56.3±3.6 mV and the “Resting membrane potential versus control level” value ([2]; LCA16 iPSC-RPE, bar graph comparison FIG. 7D) was “recovery of LCA16 iPSC-RPE to control level”.
